#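 Where inhibition never reached the appropriate level, the endpoint shown equals the highest concentration tested. Otherwise, values were interpolated linearly from a five-concentration, 48-hour dose response in 96-well plates. Abbreviation: GI50, concentration required for 50% inhibition of growth. At the TGI there is no net growth.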
# What was measured:
# Experiment in all cases: DTP human tumour cell line panel, 48 h
# SR leukemia = tested on: SR leukemia
# OVCAR-4 ovarian = tested on: OVCAR-4 ovarian
# MDA-MB-231 breast = tested on: MDA-MB-231 breast
# SF-539 CNS = tested on: SF-539 CNS
# HCC-2998 colon = tested on: HCC-2998 colon
# M14 melanoma = tested on: M14 melanoma
# RXF 393 renal = tested on: RXF 393 renal
# HT29 colon = tested on: HT29 colon
# LOX IMVI melanoma = tested on: LOX IMVI melanoma
# HCT-116 colon = tested on: HCT-116 colon
# ACHN renal = tested on: ACHN renal
# SK-OV-3 ovarian = tested on: SK-OV-3 ovarian
# 786-0 renal = tested on: 786-0 renal
# HOP-62 NSCLC = tested on: HOP-62 NSCLC
# A549 NSCLC = tested on: A549 NSCLC
# T-47D breast = tested on: T-47D breast
# SK-MEL-28 melanoma = tested on: SK-MEL-28 melanoma
# CAKI-1 renal = tested on: CAKI-1 renal
# SF-295 CNS = tested on: SF-295 CNS
# OVCAR-8 ovarian = tested on: OVCAR-8 ovarian
# OVCAR-5 ovarian = tested on: OVCAR-5 ovarian
# UACC-257 melanoma = tested on: UACC-257 melanoma
# SF-268 CNS = tested on: SF-268 CNS
# SNB-19 CNS = tested on: SNB-19 CNS
# NCI-H522 lung = tested on: NCI-H522 lung
# U251 CNS = tested on: U251 CNS
# MOLT-4 leukemia = tested on: MOLT-4 leukemia
# SK-MEL-5 melanoma = tested on: SK-MEL-5 melanoma
# SN12C renal = tested on: SN12C renal
# NCI-H226 lung = tested on: NCI-H226 lung
# A498 renal = tested on: A498 renal
# CCRF-CEM leukemia = tested on: CCRF-CEM leukemia
# HS 578T breast = tested on: HS 578T breast
# SK-MEL-2 melanoma = tested on: SK-MEL-2 melanoma
# SW-620 colon = tested on: SW-620 colon
# RPMI-8226 leukemia = tested on: RPMI-8226 leukemia
# SNB-75 CNS = tested on: SNB-75 CNS
# NCI-H460 lung = tested on: NCI-H460 lung
# MDA-MB-435 = tested on: MDA-MB-435
# OVCAR-3 ovarian = tested on: OVCAR-3 ovarian
# HOP-92 NSCLC = tested on: HOP-92 NSCLC
# COLO 205 colon = tested on: COLO 205 colon
# BT-549 breast = tested on: BT-549 breast
# TK-10 renal = tested on: TK-10 renal
# HCT-15 colon = tested on: HCT-15 colon
# KM12 colon = tested on: KM12 colon
# MCF7 breast = tested on: MCF7 breast
# MALME-3M melanoma = tested on: MALME-3M melanoma
# IGROV1 ovarian = tested on: IGROV1 ovarian
# NCI/ADR-RES ovarian = tested on: NCI/ADR-RES ovarian
# DU-145 prostate = tested on: DU-145 prostate
# UO-31 renal = tested on: UO-31 renal
# NCI-H23 lung = tested on: NCI-H23 lung
# UACC-62 melanoma = tested on: UACC-62 melanoma
# EKVX NSCLC = tested on: EKVX NSCLC
# K-562 leukemia = tested on: K-562 leukemia
# PC-3 prostate = tested on: PC-3 prostate
structure (smiles),measurement,setting,value
C1CC[N-]CC1.C1CC[N-]CC1.C1CC[N-]CC1.C1CC[N-]CC1.[Cl][Rh][Cl],GI50,SR leukemia,4.75 µM
same,TGI,SR leukemia,42 µM
same,GI50,OVCAR-4 ovarian,5.43 µM
same,TGI,OVCAR-4 ovarian,> 100 µM
same,GI50,MDA-MB-231 breast,21.5 µM
same,TGI,MDA-MB-231 breast,> 100 µM
same,GI50,SF-539 CNS,5.15 µM
same,TGI,SF-539 CNS,> 100 µM
same,GI50,HCC-2998 colon,8.17 µM
same,TGI,HCC-2998 colon,30.3 µM
same,GI50,M14 melanoma,6.26 µM
same,TGI,M14 melanoma,> 100 µM
same,GI50,RXF 393 renal,13.8 µM
same,TGI,RXF 393 renal,81.1 µM
same,GI50,HT29 colon,7.6 µM
same,TGI,HT29 colon,45.8 µM
same,GI50,LOX IMVI melanoma,10.2 µM
same,TGI,LOX IMVI melanoma,> 100 µM
same,GI50,HCT-116 colon,4.75 µM
same,TGI,HCT-116 colon,> 100 µM
same,GI50,ACHN renal,50.1 µM
same,TGI,ACHN renal,> 100 µM
same,GI50,SK-OV-3 ovarian,14.8 µM
same,TGI,SK-OV-3 ovarian,> 100 µM
same,GI50,786-0 renal,41.4 µM
same,TGI,786-0 renal,> 100 µM
same,GI50,HOP-62 NSCLC,4.41 µM
same,TGI,HOP-62 NSCLC,> 100 µM
same,GI50,A549 NSCLC,3.12 µM
same,TGI,A549 NSCLC,> 100 µM
same,GI50,T-47D breast,3.87 µM
same,TGI,T-47D breast,> 100 µM
same,GI50,SK-MEL-28 melanoma,3.36 µM
same,TGI,SK-MEL-28 melanoma,21.6 µM
same,GI50,CAKI-1 renal,67.7 µM
same,TGI,CAKI-1 renal,> 100 µM
same,GI50,SF-295 CNS,3 µM
same,TGI,SF-295 CNS,81.1 µM
same,GI50,OVCAR-8 ovarian,4.07 µM
same,TGI,OVCAR-8 ovarian,> 100 µM
same,GI50,OVCAR-5 ovarian,6.83 µM
same,TGI,OVCAR-5 ovarian,49.8 µM
same,GI50,UACC-257 melanoma,3.21 µM
same,TGI,UACC-257 melanoma,69.4 µM
same,GI50,SF-268 CNS,5.21 µM
same,TGI,SF-268 CNS,27.9 µM
same,GI50,SNB-19 CNS,4.75 µM
same,TGI,SNB-19 CNS,> 100 µM
same,GI50,NCI-H522 lung,1.03 µM
same,TGI,NCI-H522 lung,2.65 µM
same,GI50,U251 CNS,4.72 µM
same,TGI,U251 CNS,23.8 µM
same,GI50,MOLT-4 leukemia,13.7 µM
same,TGI,MOLT-4 leukemia,> 100 µM
same,GI50,SK-MEL-5 melanoma,4.2 µM
same,TGI,SK-MEL-5 melanoma,18.9 µM
same,GI50,SN12C renal,1.4 µM
same,TGI,SN12C renal,> 100 µM
same,GI50,NCI-H226 lung,4.47 µM
same,TGI,NCI-H226 lung,> 100 µM
same,GI50,A498 renal,15.6 µM
same,TGI,A498 renal,55.2 µM
same,GI50,CCRF-CEM leukemia,3.46 µM
same,TGI,CCRF-CEM leukemia,72.4 µM
same,GI50,HS 578T breast,3.95 µM
same,TGI,HS 578T breast,54.8 µM
same,GI50,SK-MEL-2 melanoma,12.7 µM
same,TGI,SK-MEL-2 melanoma,41.8 µM
same,GI50,SW-620 colon,6.12 µM
same,TGI,SW-620 colon,> 100 µM
same,GI50,RPMI-8226 leukemia,3.2 µM
same,TGI,RPMI-8226 leukemia,13.6 µM
same,GI50,SNB-75 CNS,6.69 µM
same,TGI,SNB-75 CNS,80.3 µM
same,GI50,NCI-H460 lung,2.87 µM
same,TGI,NCI-H460 lung,26.5 µM
same,GI50,MDA-MB-435,4.09 µM
same,TGI,MDA-MB-435,32.4 µM
same,GI50,OVCAR-3 ovarian,10.6 µM
same,TGI,OVCAR-3 ovarian,41.3 µM
same,GI50,HOP-92 NSCLC,4.39 µM
same,TGI,HOP-92 NSCLC,22.1 µM
same,GI50,COLO 205 colon,3.17 µM
same,TGI,COLO 205 colon,9.34 µM
same,GI50,BT-549 breast,5.6 µM
same,TGI,BT-549 breast,19.3 µM
same,GI50,TK-10 renal,23.6 µM
same,TGI,TK-10 renal,> 100 µM
same,GI50,HCT-15 colon,41.2 µM
same,TGI,HCT-15 colon,> 100 µM
same,GI50,KM12 colon,7.04 µM
same,TGI,KM12 colon,21.8 µM
same,GI50,MCF7 breast,10.2 µM
same,TGI,MCF7 breast,> 100 µM
same,GI50,MALME-3M melanoma,6.64 µM
same,TGI,MALME-3M melanoma,43.4 µM
same,GI50,IGROV1 ovarian,7.85 µM
same,TGI,IGROV1 ovarian,76.8 µM
same,GI50,NCI/ADR-RES ovarian,> 100 µM
same,TGI,NCI/ADR-RES ovarian,> 100 µM
same,GI50,DU-145 prostate,6.3 µM
same,TGI,DU-145 prostate,53.8 µM
same,GI50,UO-31 renal,34.4 µM
same,TGI,UO-31 renal,> 100 µM
C[C@@H]1C=C(CCCCCCCCCCC[C@H](O)[C@@H]2CCC(=O)O2)C(=O)O1,GI50,NCI-H23 lung,24.2 µM
same,TGI,NCI-H23 lung,99.1 µM
same,GI50,OVCAR-4 ovarian,> 100 µM
same,TGI,OVCAR-4 ovarian,> 100 µM
same,GI50,MDA-MB-231 breast,19.4 µM
same,TGI,MDA-MB-231 breast,88.7 µM
same,GI50,SF-539 CNS,38.8 µM
same,TGI,SF-539 CNS,> 100 µM
same,GI50,HCC-2998 colon,2.26 µM
same,TGI,HCC-2998 colon,16.7 µM
same,GI50,M14 melanoma,25.1 µM
same,TGI,M14 melanoma,87.9 µM
same,GI50,RXF 393 renal,47.2 µM
same,TGI,RXF 393 renal,> 100 µM
same,GI50,HT29 colon,42.4 µM
same,TGI,HT29 colon,> 100 µM
same,GI50,UACC-62 melanoma,21.2 µM
same,TGI,UACC-62 melanoma,85.7 µM
same,GI50,HCT-116 colon,28 µM
same,TGI,HCT-116 colon,> 100 µM
same,GI50,ACHN renal,17.9 µM
same,TGI,ACHN renal,49.3 µM
same,GI50,SK-OV-3 ovarian,51.7 µM
same,TGI,SK-OV-3 ovarian,> 100 µM
same,GI50,786-0 renal,23.6 µM
same,TGI,786-0 renal,> 100 µM
same,GI50,HOP-62 NSCLC,40.2 µM
same,TGI,HOP-62 NSCLC,> 100 µM
same,GI50,A549 NSCLC,38.1 µM
same,TGI,A549 NSCLC,> 100 µM
same,GI50,T-47D breast,32.7 µM
same,TGI,T-47D breast,65.2 µM
same,GI50,SK-MEL-28 melanoma,78.3 µM
same,TGI,SK-MEL-28 melanoma,> 100 µM
same,GI50,CAKI-1 renal,35.8 µM
same,TGI,CAKI-1 renal,> 100 µM
same,GI50,SF-295 CNS,19.8 µM
same,TGI,SF-295 CNS,48.6 µM
same,GI50,OVCAR-8 ovarian,23.4 µM
same,TGI,OVCAR-8 ovarian,69 µM
same,GI50,UACC-257 melanoma,43.2 µM
same,TGI,UACC-257 melanoma,> 100 µM
same,GI50,SF-268 CNS,40.3 µM
same,TGI,SF-268 CNS,> 100 µM
same,GI50,SNB-19 CNS,86.5 µM
same,TGI,SNB-19 CNS,> 100 µM
same,GI50,EKVX NSCLC,33.2 µM
same,TGI,EKVX NSCLC,> 100 µM
same,GI50,NCI-H522 lung,15.9 µM
same,TGI,NCI-H522 lung,49.2 µM
same,GI50,U251 CNS,24.5 µM
same,TGI,U251 CNS,81.7 µM
same,GI50,MOLT-4 leukemia,21.6 µM
same,TGI,MOLT-4 leukemia,42.6 µM
same,GI50,SK-MEL-5 melanoma,14.5 µM
same,TGI,SK-MEL-5 melanoma,28.1 µM
same,GI50,SN12C renal,25.3 µM
same,TGI,SN12C renal,82.8 µM
same,GI50,NCI-H226 lung,15.9 µM
same,TGI,NCI-H226 lung,68.5 µM
same,GI50,A498 renal,25.6 µM
same,TGI,A498 renal,68.7 µM
same,GI50,CCRF-CEM leukemia,17.6 µM
same,TGI,CCRF-CEM leukemia,47.4 µM
same,GI50,SK-MEL-2 melanoma,40.8 µM
same,TGI,SK-MEL-2 melanoma,> 100 µM
same,GI50,SW-620 colon,37.6 µM
same,TGI,SW-620 colon,> 100 µM
same,GI50,SNB-75 CNS,> 100 µM
same,TGI,SNB-75 CNS,> 100 µM
same,GI50,NCI-H460 lung,31.2 µM
same,TGI,NCI-H460 lung,> 100 µM
same,GI50,MDA-MB-435,24.3 µM
same,TGI,MDA-MB-435,60.2 µM
same,GI50,OVCAR-3 ovarian,16.4 µM
same,TGI,OVCAR-3 ovarian,44.7 µM
same,GI50,COLO 205 colon,19.1 µM
same,TGI,COLO 205 colon,40.6 µM
same,GI50,K-562 leukemia,20.4 µM
same,TGI,K-562 leukemia,56.7 µM
same,GI50,BT-549 breast,47.4 µM
same,TGI,BT-549 breast,> 100 µM
same,GI50,TK-10 renal,22.9 µM
same,TGI,TK-10 renal,63.8 µM
same,GI50,HCT-15 colon,25.5 µM
same,TGI,HCT-15 colon,> 100 µM
same,GI50,KM12 colon,23.6 µM
same,TGI,KM12 colon,65 µM
same,GI50,MCF7 breast,39.2 µM
same,TGI,MCF7 breast,> 100 µM
same,GI50,PC-3 prostate,30.5 µM
same,TGI,PC-3 prostate,92.9 µM
same,GI50,MALME-3M melanoma,19.1 µM
same,TGI,MALME-3M melanoma,46.6 µM
same,GI50,IGROV1 ovarian,13.7 µM
same,TGI,IGROV1 ovarian,67.9 µM
same,GI50,NCI/ADR-RES ovarian,12.1 µM
same,TGI,NCI/ADR-RES ovarian,34 µM
same,GI50,DU-145 prostate,24.1 µM
same,TGI,DU-145 prostate,> 100 µM
same,GI50,UO-31 renal,20.1 µM
same,TGI,UO-31 renal,55.6 µM
